Measured values as given in patent publication US4761414A, “Substituted 1H-pyrimido[1,2-a-]-pyrido[3,4-e]pyrazine 6 oxides” (G. D. Searle & Co., priority 1986, dated 1988).
≈ marks a conversion by molar mass, not a printed value. Where two headings read alike, the source gives them in different places.

Columns and labels:
B. fragilis NCTC 9344 = assay: MIC/MBC against Bacteroides fragilis strain C; format: cell-based; details: for MBC: NCTC9344, 99.9% reduction in viable count; for MIC: NCTC9344, 48 h, 48 hours, 37° C., anaerobic
Experimental: (§1) The screening panel utilized in this Example consisted of 5 strains of Bacteroides fragilis. All assays were carried out in 96-well microtitre plates. If an isolate was obtained from either a culture collection or clinical source, the isolate was immediately inoculated into Wilkens-Chalgren broth (Oxoid) and incubated at 37° C. in an anaerobic chamber in an atmosphere of 85% nitrogen, 10% carbon dioxide, and 5% hydrogen for 48 hours. At the end of this time, the viable count was about 10^12 organisms/ml broth. A 1 ml aliquot of each culture was placed in an ampoule and quick frozen in acetone-dry ice mixture and stored in liquid nitrogen. When an inoculum was utilized in an assay, one of the ampoules was thawed and diluted with fresh broth to yield a suspension having a count of 5×10^5 organisms/ml. A 100 μl aliquot of this suspension was inoculated into each well of the microtitre plate. A 2 mg sample of the test compound was dissolved in 0.2 ml of a suitable solvent such as dimethylsulfoxide, polyethylene glycol 200 or methanol. […] After addition of the test solution the final inoculum level was 10^5 cells/ml. The plates were incubated for 48 hours at 37° C. in the anaerobic chamber. The Minimum Inhibitory Concentration (MIC) was read visually. The MIC is defined as the lowest concentration at which there is no detectable growth. The Minimum Bactericidal Concentration (MBC) was determined by taking 50 μl aliquot from each well and placing it in fresh medium. […] The strains of Bacteroides fragilis utilized in the above procedure are identified by letter in accordance with the following legend: |C B. fragilis NCTC 9344

[1] = tested on: B. fragilis MZ-R ATCC 11295; assay: MIC/MBC against Bacteroides fragilis strain D; format: cell-based; details: for MBC: ATCC11295, 99.9% reduction in viable count; for MIC: ATCC11295, 48 h, 48 hours, 37° C., anaerobic
Experimental: The screening panel utilized in this Example consisted of 5 strains of Bacteroides fragilis. All assays were carried out in 96-well microtitre plates. If an isolate was obtained from either a culture collection or clinical source, the isolate was immediately inoculated into Wilkens-Chalgren broth (Oxoid) and incubated at 37° C. in an anaerobic chamber in an atmosphere of 85% nitrogen, 10% carbon dioxide, and 5% hydrogen for 48 hours. At the end of this time, the viable count was about 10^12 organisms/ml broth. A 1 ml aliquot of each culture was placed in an ampoule and quick frozen in acetone-dry ice mixture and stored in liquid nitrogen. When an inoculum was utilized in an assay, one of the ampoules was thawed and diluted with fresh broth to yield a suspension having a count of 5×10^5 organisms/ml. A 100 μl aliquot of this suspension was inoculated into each well of the microtitre plate. A 2 mg sample of the test compound was dissolved in 0.2 ml of a suitable solvent such as dimethylsulfoxide, polyethylene glycol 200 or methanol. […] After addition of the test solution the final inoculum level was 10^5 cells/ml. The plates were incubated for 48 hours at 37° C. in the anaerobic chamber. The Minimum Inhibitory Concentration (MIC) was read visually. The MIC is defined as the lowest concentration at which there is no detectable growth. The Minimum Bactericidal Concentration (MBC) was determined by taking 50 μl aliquot from each well and placing it in fresh medium.

B. fragilis WS-1 = assay: MIC/MBC against Bacteroides fragilis strain E; format: cell-based; details: for MBC: WS1, 99.9% reduction in viable count; for MIC: WS1, 48 h, 48 hours, 37° C., anaerobic
Experimental: as §1, with “|E” for “|C”, “WS-1*” for “NCTC 9344”

B. fragilis 23745 = details: Bacteroides fragilis, 23745, in Mus musculus, po, 48 h, log CFU/ml liver homogenate, test compound
[2] = tested on: Clostridium perfringens NCTC 523; assay: microbe, parasite or virus in culture; format: cell-based; details: Clostridium perfringens, NCTC523, Clostridium perfringens NCTC 523; procedures of Example 40
[3] = tested on: Costridium difficile NCIB 10666; assay: MIC vs panel of anaerobes; format: cell-based, C. difficile; details: Clostridioides difficile, NCIB10666, C. difficile NCIB 10666; procedures of Example 40; read-out: MIC
[4] = tested on: Campylobacter fetus ss. jejuni NCTC 10842; assay: MIC vs panel of anaerobes; format: cell-based; details: NCTC10842, procedures of Example 40
[5] = tested on: Fusobacterium necrophorum ATCC 11295; assay: MIC vs panel of anaerobes; format: cell-based; details: Fusobacterium necrophorum, ATCC11295, Fusobacterium necrophorum ATCC 11295; procedures of Example 40; read-out: MIC
[6] = tested on: Propionebacterium acnes NCTC 737; assay: MIC vs panel of anaerobes; format: cell-based; details: procedures of Example 40
[7] = read-out: DOSE GIVING 1 LOG REDUCTION (molar), p.o., after infection and twice daily for 2 days
[8] = read-out: DOSE GIVING 1 LOG REDUCTION, p.o., after infection and twice daily for 2 days

SMILES	MBC (B. fragilis NCTC 9344) [µg/mL]	MIC (B. fragilis NCTC 9344) [µg/mL]	MBC [1] [µg/mL]	MIC [1] [µg/mL]	MBC (B. fragilis WS-1) [µg/mL]	MIC (B. fragilis WS-1) [µg/mL]	ED (1 log reduction) (B. fragilis 23745; [7]) [µmol/kg]	ED (1 log reduction) (B. fragilis 23745; [8]) [mg/kg]	MIC [2] [µg/mL]	MIC [3] [µg/mL]	MIC [4] [µg/mL]	MIC [5] [µg/mL]	MIC [6] [µg/mL]
CCCC1(C)CN=C2C(c3ccccc3)=[N+]([O-])c3cnccc3N2C1 (stereo not drawn) [Example 27, 2,3-Dihydro-2-methyl-5-phenyl-2-propyl-1H-pyrimido[1,2-a]pyrido[3,4-e]pyrazine 6-oxide]	< 0.8	< 0.8	1.5 (≈ 4.49 µM)	1.5 (≈ 4.49 µM)	3.1 (≈ 9.27 µM)	1.5 (≈ 4.49 µM)	7.4	2.5					
CC1(C)CN=C2C(c3ccc(F)cc3)=[N+]([O-])c3cnccc3N2C1 [Example 33, 2,3-Dihydro-2,2-dimethyl-5-(4-fluorophenyl)-1H-pyrimido[1,2-a]pyrido[3,4-e]pyrazine 6-oxide]	< 0.8	< 0.8	< 0.8	< 0.8	< 0.8	< 0.8	2.85	0.9					
[O-][N+]1=C(c2ccccc2)C2=NCC3(CCCCC3)CN2c2ccncc21 [Example 30, Spiro[cyclohexane-1,2'-[2,3]-dihydro-[5]-phenyl-[1H]pyrimido[1,2-a]pyrido[3,4-e]pyrazine [6]-oxide]]	< 0.8	< 0.8	< 0.8	< 0.8	< 0.8	< 0.8			6.2 (≈ 17.9 µM)	< 0.8	100 (≈ 289 µM)	3.1 (≈ 8.95 µM)	> 100
COc1ccc(C2=[N+]([O-])c3cnccc3N3CC(C)(C)CN=C23)cc1OC [Example 21]	1.5 (≈ 4.09 µM)	< 0.8	< 0.8	< 0.8	< 0.8	< 0.8	6.8	2.5					
CC1CN=C2C(c3ccccc3)=[N+]([O-])c3cnccc3N2C1 (stereo not drawn) [Example 34, 2,3-Dihydro-2-methyl-5-phenyl-1H-pyrimido[1,2-a]pyrido[3,4-e]pyrazine 6-oxide]	< 0.8	< 0.8	< 0.8	< 0.8	< 0.8	< 0.8	9.3	2.7					
Cc1ccc(C2=[N+]([O-])c3cnccc3N3CC(C)(C)CN=C23)cc1 [Example 19, 2,3-Dihydro-2,2-dimethyl-5-(4-methylphenyl)-1H-pyrimido[1,2-a]pyrido[3,4-e]pyrazine 6-oxide]	< 0.8	< 0.8	1.5 (≈ 4.68 µM)	1.5 (≈ 4.68 µM)	1.5 (≈ 4.68 µM)	1.5 (≈ 4.68 µM)	4.6	1.5	1.5 (≈ 4.68 µM)		6.2 (≈ 19.4 µM)	< 0.8	
CC1CN=C2C(c3ccccc3)=[N+]([O-])c3cccnc3N2C1 (stereo not drawn) [Example 32, 2,3-Dihydro-2-methyl-5-phenyl-1H-pyrimido[1,2-a]pyrido[3,2-e]pyrazine 6-oxide]	< 0.8	< 0.8	< 0.8	< 0.8	< 0.8	< 0.8	3.3	0.95	< 0.8		< 0.8	< 0.8	
CC1(C)CN=C2C(c3ccc(Cl)cc3)=[N+]([O-])c3cccnc3N2C1 [Example 18, 2,3-Dihydro-5-(4-chlorophenyl)-2,2-dimethyl-1H-pyrimido[1,2-a]pyrido[3,2-e]pyrazine 6-oxide]	1.5 (≈ 4.4 µM)	1.5 (≈ 4.4 µM)	< 0.8	< 0.8	< 0.8	< 0.8	53.4	17.4	< 0.8	< 0.8		< 0.8	100 (≈ 293 µM)
CC1(C)CN=C2C(c3ccccc3)=[N+]([O-])c3cccnc3N2C1 [Example 16, 2,3-Dihydro-2,2-dimethyl-5-phenyl-1H-pyrimido[1,2-a]pyrido[3,2-e]pyrazine 6-oxide]	1.5 (≈ 4.9 µM)	1.5 (≈ 4.9 µM)	1.5 (≈ 4.9 µM)	< 0.8	1.5 (≈ 4.9 µM)	< 0.8	2.6	0.8	< 0.8	< 0.8		< 0.8	100 (≈ 326 µM)
CC1(C)CN=C2C(c3ccccc3)=[N+]([O-])c3ccncc3N2C1 [Example 14, 2,3-Dihydro-2,2-dimethyl-5-phenyl-1H-pyrimido[1,2-a]pyrido[4,3-e]pyrazine 6-oxide]	6.2 (≈ 20.2 µM)	6.2 (≈ 20.2 µM)	3.1 (≈ 10.1 µM)	3.1 (≈ 10.1 µM)	3.1 (≈ 10.1 µM)	3.1 (≈ 10.1 µM)			25 (≈ 81.6 µM)	1.5 (≈ 4.9 µM)	50 (≈ 163 µM)	25 (≈ 81.6 µM)	> 100
CC1(C)CN=C2C(c3ccccc3)=[N+]([O-])c3cnccc3N2C1 [Example 15, 2,3-Dihydro-2,2-dimethyl-5-phenyl-1H-pyrimido[1,2-a]pyrido[3,4-e]pyrazine 6-oxide]	< 0.8	< 0.8	1.5 (≈ 4.9 µM)	< 0.8	1.5 (≈ 4.9 µM)	< 0.8	13.4	4.1	1.5 (≈ 4.9 µM)	1.5 (≈ 4.9 µM)		< 0.8	> 100
CCCC1(C)CN=C2C(c3ccccc3)=[N+]([O-])c3cccnc3N2C1 (stereo not drawn) [Example 28, 2,3-Dihydro-2-methyl-5-phenyl-2-propyl-1H-pyrimido[1,2-a]pyrido[3,2-e]pyrazine 6-oxide]	< 0.8	< 0.8	< 0.8	< 0.8	1.5 (≈ 4.49 µM)	< 0.8	7.4	2.5					
